What was measured:
Carbonic anhydrase 9 = Carbonic anhydrase 9 (Homo sapiens, UniProt Q16790)
Description: Inhibition of human cloned CA9 catalytic domain by stopped flow CO2 hydration assay

[1] = Apparent effective permeability by PAMPA method; format: ADME; conditions: read-out: permeability
[2] = Chemical stability during PAMPA assessed as compound degradation; format: physicochemical; conditions: read-out: Activity

Structure (SMILES)	Ki (Carbonic anhydrase 9)	Papp [1]	degraded [2]
CC1(C)O[C@@H]2[C@@H](CO[C@@]3(COS(N)(=O)=O)OC(C)(C)O[C@@H]23)O1 [TOPIRAMATE]		0.54 ×10⁻⁶ cm/s	
NS(=O)(=O)[C@@H]1O[C@H](CO)[C@H](O)[C@H](O)[C@H]1O	4.19 µM		
COC(=O)[C@H]1O[C@@H](S(N)(=O)=O)[C@H](OC(C)=O)[C@@H](OC(C)=O)[C@@H]1OC(C)=O	4.15 µM		
NS(=O)(=O)[C@@H]1O[C@H](CO)[C@@H](O)[C@H](O)[C@H]1O	4.05 µM	< 0.4 ×10⁻⁶ cm/s	
CC(=O)OC[C@H]1O[C@@H](S(N)(=O)=O)[C@H](OC(C)=O)[C@@H](OC(C)=O)[C@@H]1O[C@H]1O[C@H](COC(C)=O)[C@@H](OC(C)=O)[C@H](OC(C)=O)[C@H]1OC(C)=O	4.08 µM	< 0.02 ×10⁻⁶ cm/s	

More lines, now with the values ahead:

Ki (Carbonic anhydrase 9)	Papp [1]	degraded [2]	Structure (SMILES)
4.03 µM			CC(=O)OC[C@H]1O[C@@H](O[C@H]2[C@H](OC(C)=O)[C@@H](OC(C)=O)[C@H](S(N)(=O)=O)O[C@@H]2COC(C)=O)[C@H](OC(C)=O)[C@@H](OC(C)=O)[C@H]1OC(C)=O
4.22 µM	< 0.5 ×10⁻⁶ cm/s		NS(=O)(=O)[C@@H]1O[C@H](CO)[C@@H](O[C@H]2O[C@H](CO)[C@@H](O)[C@H](O)[C@H]2O)[C@H](O)[C@H]1O
	< 0.15 ×10⁻⁶ cm/s		CC(=O)Nc1nnc(S(N)(=O)=O)s1 [ACETAZOLAMIDE]
3.91 µM	< 0.1 ×10⁻⁶ cm/s	35%	CC(=O)OC[C@H]1O[C@@H](S(N)(=O)=O)[C@H](OC(C)=O)[C@@H](OC(C)=O)[C@@H]1OC(C)=O
4.09 µM			CC(=O)OC[C@H]1O[C@@H](S(N)(=O)=O)[C@H](OC(C)=O)[C@@H](OC(C)=O)[C@H]1OC(C)=O
4.19 µM			NS(=O)(=O)[C@@H]1O[C@H](CO)[C@@H](O[C@@H]2O[C@H](CO)[C@H](O)[C@H](O)[C@H]2O)[C@H](O)[C@H]1O
